{
  "source": "paper PMC6158191",
  "about": "“Crystal structure of the red light-activated channelrhodopsin Chrimson” (Nature Communications, 2018)",
  "key": {"[1]": {"molecular_target": "C1Chrimson (Chrimson variant with the extracellular N-terminal sequence replaced by that of CrChR1) (Chlamydomonas reinhardtii | Chlamydomonas noctigama)", "test": "crystal structure; lipidic cubic phase (monoolein) crystals, 28-33% PEG500DME, 100 mM Na citrate pH 5.0, 100 mM Na malonate pH 7.0, 10-40 mM sarcosine; two protomers in the asymmetric unit; 2.6 Å"}, "[2]": {"molecular_target": "T1, C1Chrimson (called Chrimson in the structure and spectroscopy sections) (Chlamydomonas noctigama, UniProt Z9S8G4QJ52)", "T1 construct": "residues 1-79 of CsChrimson replaced by CrChR1 1-76; Sf9; C-terminal TEV-EGFP-FLAG cleaved for crystals; C-terminal FLAG for spectroscopy; dimer", "T1 sequence (Z9S8G4QJ52 1-347)": "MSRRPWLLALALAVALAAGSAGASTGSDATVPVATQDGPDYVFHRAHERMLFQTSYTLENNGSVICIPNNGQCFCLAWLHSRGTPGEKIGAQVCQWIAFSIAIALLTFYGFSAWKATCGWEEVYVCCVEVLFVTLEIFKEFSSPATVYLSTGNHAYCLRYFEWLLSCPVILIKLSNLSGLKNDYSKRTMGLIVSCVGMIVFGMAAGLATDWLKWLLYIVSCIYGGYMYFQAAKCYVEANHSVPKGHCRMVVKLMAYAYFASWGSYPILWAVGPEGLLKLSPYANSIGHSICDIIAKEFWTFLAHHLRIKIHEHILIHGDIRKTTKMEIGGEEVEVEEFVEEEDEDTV", "test": "X-ray crystallography, […] Å", "assay_type": "binding", "details": "covalent; Schiff base to conserved lysine; crystals at low pH, dark"}, "CsChrimson": {"molecular_target": "T2, CsChrimson (Chlamydomonas noctigama, UniProt Z9S8G4QJ52, , form not given)", "T2 construct": "extracellular N-terminus of Chrimson replaced by that of C. subdivisa channelrhodopsin; in pmCerulean-C1 vector; HEK293 cells; with Channelrhodopsin (Chloromonas subdivisa; N-terminal extracellular part of the same polypeptide)", "T2 sequence (Z9S8G4QJ52 77-347 R159H)": "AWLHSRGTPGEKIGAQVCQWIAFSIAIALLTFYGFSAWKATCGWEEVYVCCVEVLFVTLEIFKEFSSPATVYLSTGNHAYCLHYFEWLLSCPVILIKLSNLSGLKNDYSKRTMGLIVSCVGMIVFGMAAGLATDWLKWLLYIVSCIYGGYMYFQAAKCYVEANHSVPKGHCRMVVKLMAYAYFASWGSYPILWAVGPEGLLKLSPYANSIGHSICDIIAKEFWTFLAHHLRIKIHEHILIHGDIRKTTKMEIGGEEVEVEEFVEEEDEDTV", "test": "whole-cell patch clamp, HEK293, photocurrent on cation exchange", "assay_type": "cell-based", "details": "permeant ion; 110 mM guanidinium chloride outside replacing NaCl; 110 mM NaCl inside, pHi 7.2"}},
  "data": [
    {"compound": "C1Chrimson (Chrimson variant with the extracellular N-terminal sequence replaced by that of CrChR1)", "values": [
      {"measurement": "stoichiometry N", "setting": "[1]", "result": 2}
    ]},
    {"compound": "CC1=C(/C=C/C(C)=C/C=C/C(C)=C/C=O)C(C)(C)CCC1", "note": "[all-trans retinal]", "values": [
      {"measurement": "X-ray crystallography, 2.6 Å", "setting": "[2]", "result": "including the covalently attached all-trans retinal"}
    ]},
    {"compound": "N=C(N)N", "note": "[guanidinium]", "values": [
      {"measurement": "whole-cell patch clamp, HEK293, photocurrent on cation exchange", "setting": "CsChrimson", "result": "ion-conducting pore of the R162H mutant is permeable to the large cation guanidinium"}
    ]}
  ]
}
